Test results taken from paper PMC8429728, “TNK1 is a ubiquitin-binding and 14-3-3-regulated kinase that can be targeted to block tumor growth” (Nature Communications, 2021).
Like-named read-outs stand apart in the source and are kept apart here.

Legend:
Assay in all cases: biochemical
Design in all cases: Reaction Biology 371-kinase panel at Km ATP, per cent enzyme activity relative to DMSO, single dose in duplicate
Settings in all cases: duplicate measurements, Km ATP
DYRK1B = DYRK1B (Homo sapiens, UniProt Q9Y463)
Outline: (§1)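 In vitro selectivity panel: 371 kinases, inhibitor at 300 nM; % activity vs DMSO; IC50 by variable-slope sigmoidal fit, bottom = 0.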

NEK7 = NEK7 (Homo sapiens, UniProt Q8TDX7)
Outline: as §1

CK1epsilon = target: T1, CK1epsilon (Homo sapiens, UniProt P49674)
T1 construct: gene CSNK1E
Outline: as §1

LCK2/ICK = target: T2, LCK2/ICK (Homo sapiens, UniProt Q9UPZ9)
T2 construct: gene CILK1
Outline: as §1

MARK1 = MARK1 (Homo sapiens, UniProt Q9P0L2)
Outline: as §1

STK25/YSK1 = STK25/YSK1 (Homo sapiens, UniProt O00506)
Outline: as §1

VRK2 = VRK2 (Homo sapiens, UniProt Q86Y07)
Outline: as §1

P38g = target: T3, P38g (Homo sapiens, UniProt P53778)
T3 construct: gene MAPK12
Outline: as §1

BMX/ETK = BMX/ETK (Homo sapiens, UniProt P51813)
Outline: as §1

GRK6 = GRK6 (Homo sapiens, UniProt P43250)
Outline: as §1

ABL1 = ABL1 (Homo sapiens, UniProt P00519)
Outline: as §1

MEKK6 = target: T4, MEKK6 (Homo sapiens, UniProt O95382)
T4 construct: gene MAP3K6
Outline: as §1

PKCmu/PRKD1 = PKCmu/PRKD1 (Homo sapiens, UniProt Q15139)
Outline: as §1

ERK1 = target: T5, ERK1 (Homo sapiens, UniProt P27361)
T5 construct: gene MAPK3
Outline: as §1

CK1a1 = target: T6, CK1a1 (Homo sapiens, UniProt P48729)
T6 construct: gene CSNK1A1
Outline: as §1

CDK3/cyclin E = CDK3/cyclin E (Homo sapiens, UniProt Q00526)
Outline: as §1

PKCa = target: T7, PKCa (Homo sapiens, UniProt P17252)
T7 construct: gene PRKCA
Outline: as §1

CAMKK1 = CAMKK1 (Homo sapiens, UniProt Q8N5S9)
Outline: as §1

TBK1 = TBK1 (Homo sapiens, UniProt Q9UHD2)
Outline: as §1

SYK = SYK (Homo sapiens, UniProt P43405)
Outline: as §1

[1] = read-out: % Enzyme Activity (relative to DMSO controls) / TP-0005801 (0.3µM) / Data 1
[2] = read-out: % Enzyme Activity (relative to DMSO controls) / TP-0005801 (0.3µM) / Data 2

MARK1, sequence (Q9P0L2 whole entry): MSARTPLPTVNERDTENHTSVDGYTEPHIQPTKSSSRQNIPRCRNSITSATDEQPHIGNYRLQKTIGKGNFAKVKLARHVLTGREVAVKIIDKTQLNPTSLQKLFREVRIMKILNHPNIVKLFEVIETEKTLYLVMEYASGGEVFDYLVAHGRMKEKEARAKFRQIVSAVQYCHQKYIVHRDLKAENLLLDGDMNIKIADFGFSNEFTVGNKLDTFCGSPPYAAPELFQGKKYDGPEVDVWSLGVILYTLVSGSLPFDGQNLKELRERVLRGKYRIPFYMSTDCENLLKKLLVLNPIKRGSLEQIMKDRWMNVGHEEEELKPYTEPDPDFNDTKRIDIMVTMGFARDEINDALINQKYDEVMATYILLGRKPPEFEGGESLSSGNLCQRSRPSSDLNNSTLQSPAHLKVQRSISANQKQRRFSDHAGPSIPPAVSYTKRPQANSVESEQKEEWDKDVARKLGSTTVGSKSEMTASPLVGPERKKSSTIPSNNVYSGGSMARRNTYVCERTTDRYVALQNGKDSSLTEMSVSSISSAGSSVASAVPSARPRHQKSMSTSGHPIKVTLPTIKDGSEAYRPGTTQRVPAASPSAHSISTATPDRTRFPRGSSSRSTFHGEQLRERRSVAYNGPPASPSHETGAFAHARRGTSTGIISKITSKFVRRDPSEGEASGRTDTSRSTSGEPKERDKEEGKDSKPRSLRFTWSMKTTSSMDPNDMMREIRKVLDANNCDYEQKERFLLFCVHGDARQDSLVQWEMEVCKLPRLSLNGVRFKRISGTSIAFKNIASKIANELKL
CAMKK1, sequence (Q8N5S9 whole entry): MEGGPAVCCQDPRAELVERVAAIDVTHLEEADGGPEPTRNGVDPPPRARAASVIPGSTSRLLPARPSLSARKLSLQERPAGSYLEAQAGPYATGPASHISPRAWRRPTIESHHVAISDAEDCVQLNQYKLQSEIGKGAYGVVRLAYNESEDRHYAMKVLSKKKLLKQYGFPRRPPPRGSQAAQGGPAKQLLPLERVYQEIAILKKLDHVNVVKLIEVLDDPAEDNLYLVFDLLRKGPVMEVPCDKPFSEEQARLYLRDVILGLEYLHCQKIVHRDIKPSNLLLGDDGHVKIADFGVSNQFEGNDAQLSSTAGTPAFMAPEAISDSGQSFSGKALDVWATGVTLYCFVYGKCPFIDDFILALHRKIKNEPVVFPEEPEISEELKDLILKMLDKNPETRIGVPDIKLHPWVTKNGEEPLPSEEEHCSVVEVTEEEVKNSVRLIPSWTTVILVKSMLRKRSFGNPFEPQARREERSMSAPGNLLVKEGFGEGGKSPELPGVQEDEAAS
T1 sequence (P49674 whole entry): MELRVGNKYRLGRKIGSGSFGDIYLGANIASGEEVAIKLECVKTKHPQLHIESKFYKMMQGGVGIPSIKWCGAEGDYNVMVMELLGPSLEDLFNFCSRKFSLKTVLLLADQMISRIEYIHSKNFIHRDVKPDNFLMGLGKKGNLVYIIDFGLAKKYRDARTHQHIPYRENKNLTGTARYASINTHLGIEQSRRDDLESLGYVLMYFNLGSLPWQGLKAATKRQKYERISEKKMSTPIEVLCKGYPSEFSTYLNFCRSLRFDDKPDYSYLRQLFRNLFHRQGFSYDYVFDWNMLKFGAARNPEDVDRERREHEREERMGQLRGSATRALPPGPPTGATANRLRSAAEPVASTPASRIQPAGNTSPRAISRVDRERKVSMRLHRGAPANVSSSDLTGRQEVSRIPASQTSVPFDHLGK
TBK1, sequence (Q9UHD2 whole entry): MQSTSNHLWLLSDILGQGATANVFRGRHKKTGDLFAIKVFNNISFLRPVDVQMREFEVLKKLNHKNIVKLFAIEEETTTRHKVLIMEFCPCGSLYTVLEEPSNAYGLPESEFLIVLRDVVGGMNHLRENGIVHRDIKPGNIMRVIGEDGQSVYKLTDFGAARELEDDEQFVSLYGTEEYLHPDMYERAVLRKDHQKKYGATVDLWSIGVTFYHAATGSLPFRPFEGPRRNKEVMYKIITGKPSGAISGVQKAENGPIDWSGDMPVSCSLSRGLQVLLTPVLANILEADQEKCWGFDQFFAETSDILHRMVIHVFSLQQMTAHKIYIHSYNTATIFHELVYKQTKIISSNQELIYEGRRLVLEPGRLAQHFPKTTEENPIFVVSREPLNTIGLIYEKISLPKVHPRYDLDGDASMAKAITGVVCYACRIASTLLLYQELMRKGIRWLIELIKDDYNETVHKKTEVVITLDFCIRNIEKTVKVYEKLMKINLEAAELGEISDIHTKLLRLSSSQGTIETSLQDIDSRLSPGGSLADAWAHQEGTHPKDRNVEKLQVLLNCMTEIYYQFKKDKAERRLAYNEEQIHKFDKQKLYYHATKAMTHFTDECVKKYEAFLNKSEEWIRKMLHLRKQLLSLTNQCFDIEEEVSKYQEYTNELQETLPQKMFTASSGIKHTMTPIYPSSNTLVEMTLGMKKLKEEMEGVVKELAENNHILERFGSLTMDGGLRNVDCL
T6 sequence (P48729 whole entry): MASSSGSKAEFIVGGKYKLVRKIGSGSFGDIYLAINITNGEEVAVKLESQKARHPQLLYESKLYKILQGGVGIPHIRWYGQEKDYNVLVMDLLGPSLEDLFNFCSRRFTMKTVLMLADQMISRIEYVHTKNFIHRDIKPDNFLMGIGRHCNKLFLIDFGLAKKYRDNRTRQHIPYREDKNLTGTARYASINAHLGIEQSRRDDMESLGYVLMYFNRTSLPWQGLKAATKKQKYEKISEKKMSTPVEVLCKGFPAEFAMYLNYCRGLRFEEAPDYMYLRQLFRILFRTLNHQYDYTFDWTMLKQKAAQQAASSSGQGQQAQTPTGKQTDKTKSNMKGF
STK25/YSK1, sequence (O00506 whole entry): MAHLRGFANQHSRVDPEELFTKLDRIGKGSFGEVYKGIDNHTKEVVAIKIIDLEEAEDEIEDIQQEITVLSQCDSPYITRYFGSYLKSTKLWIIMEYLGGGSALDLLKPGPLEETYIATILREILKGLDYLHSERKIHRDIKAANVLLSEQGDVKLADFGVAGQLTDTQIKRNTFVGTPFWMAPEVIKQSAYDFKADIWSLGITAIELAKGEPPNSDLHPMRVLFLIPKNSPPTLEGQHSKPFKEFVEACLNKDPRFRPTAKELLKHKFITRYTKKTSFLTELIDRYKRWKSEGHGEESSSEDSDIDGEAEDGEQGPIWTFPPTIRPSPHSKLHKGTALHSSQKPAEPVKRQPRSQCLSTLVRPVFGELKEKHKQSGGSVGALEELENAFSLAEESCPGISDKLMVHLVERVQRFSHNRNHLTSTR
ABL1, sequence (P00519 whole entry): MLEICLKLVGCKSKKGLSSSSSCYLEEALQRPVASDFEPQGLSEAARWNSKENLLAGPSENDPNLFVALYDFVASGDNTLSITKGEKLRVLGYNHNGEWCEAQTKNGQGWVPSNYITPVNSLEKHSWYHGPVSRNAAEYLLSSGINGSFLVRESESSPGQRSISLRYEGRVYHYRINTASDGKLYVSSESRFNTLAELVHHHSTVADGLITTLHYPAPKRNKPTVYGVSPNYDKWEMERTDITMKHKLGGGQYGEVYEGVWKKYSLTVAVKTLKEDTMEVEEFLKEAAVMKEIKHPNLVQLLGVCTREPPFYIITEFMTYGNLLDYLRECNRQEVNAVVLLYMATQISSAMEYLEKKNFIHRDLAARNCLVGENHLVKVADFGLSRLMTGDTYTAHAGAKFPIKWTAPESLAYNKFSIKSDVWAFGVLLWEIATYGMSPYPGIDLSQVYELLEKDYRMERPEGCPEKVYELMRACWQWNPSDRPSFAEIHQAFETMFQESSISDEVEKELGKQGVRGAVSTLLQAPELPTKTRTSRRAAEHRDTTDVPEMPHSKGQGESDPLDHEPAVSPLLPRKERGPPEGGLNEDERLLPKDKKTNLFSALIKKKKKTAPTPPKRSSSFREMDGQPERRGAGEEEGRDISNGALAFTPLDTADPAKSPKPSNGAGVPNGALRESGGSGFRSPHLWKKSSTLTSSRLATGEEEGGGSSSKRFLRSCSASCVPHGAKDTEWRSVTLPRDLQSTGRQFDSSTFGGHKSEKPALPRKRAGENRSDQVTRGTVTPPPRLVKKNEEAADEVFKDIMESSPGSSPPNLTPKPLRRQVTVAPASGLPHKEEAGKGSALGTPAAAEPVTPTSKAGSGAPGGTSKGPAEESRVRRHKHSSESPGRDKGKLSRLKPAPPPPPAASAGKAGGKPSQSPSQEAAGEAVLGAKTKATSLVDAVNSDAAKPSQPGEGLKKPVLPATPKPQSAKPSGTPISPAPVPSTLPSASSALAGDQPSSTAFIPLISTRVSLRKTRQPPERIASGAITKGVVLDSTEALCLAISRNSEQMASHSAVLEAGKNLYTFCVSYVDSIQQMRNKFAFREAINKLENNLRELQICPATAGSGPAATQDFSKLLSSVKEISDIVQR

COc1cc(N2CCN(C)CC2)c(C)cc1Nc1ncc(Br)c(Nc2cccnc2N(C)C)n1 [TP-5801]
remaining activity at 0.3 µM (DYRK1B; [1]): 77.1%
remaining activity at 0.3 µM (DYRK1B; [2]): 75.8%
remaining activity at 0.3 µM (NEK7; [1]): 90.2%
remaining activity at 0.3 µM (NEK7; [2]): 89.5%
remaining activity at 0.3 µM (CK1epsilon; [1]): 96.5%
remaining activity at 0.3 µM (CK1epsilon; [2]): 94.7%
remaining activity at 0.3 µM (LCK2/ICK; [1]): 90.2%
remaining activity at 0.3 µM (LCK2/ICK; [2]): 87.9%
remaining activity at 0.3 µM (MARK1; [1]): 101%
remaining activity at 0.3 µM (MARK1; [2]): 99.2%
remaining activity at 0.3 µM (STK25/YSK1; [1]): 85.8%
remaining activity at 0.3 µM (STK25/YSK1; [2]): 80.9%
remaining activity at 0.3 µM (VRK2; [1]): 96%
remaining activity at 0.3 µM (VRK2; [2]): 93.9%
remaining activity at 0.3 µM (P38g; [1]): 104%
remaining activity at 0.3 µM (P38g; [2]): 102%
remaining activity at 0.3 µM (BMX/ETK; [1]): 115%
remaining activity at 0.3 µM (BMX/ETK; [2]): 114%
remaining activity at 0.3 µM (GRK6; [1]): 86.9%
remaining activity at 0.3 µM (GRK6; [2]): 83.9%
remaining activity at 0.3 µM (ABL1; [1]): 109%
remaining activity at 0.3 µM (ABL1; [2]): 107%
remaining activity at 0.3 µM (MEKK6; [1]): 95.3%
remaining activity at 0.3 µM (MEKK6; [2]): 95.2%
remaining activity at 0.3 µM (PKCmu/PRKD1; [1]): 67.7%
remaining activity at 0.3 µM (PKCmu/PRKD1; [2]): 67.3%
remaining activity at 0.3 µM (ERK1; [1]): 108%
remaining activity at 0.3 µM (ERK1; [2]): 107%
remaining activity at 0.3 µM (CK1a1; [1]): 94.3%
remaining activity at 0.3 µM (CK1a1; [2]): 93.1%
remaining activity at 0.3 µM (CDK3/cyclin E; [1]): 98%
remaining activity at 0.3 µM (CDK3/cyclin E; [2]): 97.7%
remaining activity at 0.3 µM (PKCa; [1]): 98.6%
remaining activity at 0.3 µM (PKCa; [2]): 98%
remaining activity at 0.3 µM (CAMKK1; [1]): 77.1%
remaining activity at 0.3 µM (CAMKK1; [2]): 74%
remaining activity at 0.3 µM (TBK1; [1]): 97.8%
remaining activity at 0.3 µM (TBK1; [2]): 96.4%
remaining activity at 0.3 µM (SYK; [1]): 77.6%
remaining activity at 0.3 µM (SYK; [2]): 77.5%
